From article PMC10770970, “Synthesis and cytotoxic activity evaluation of novel imidazopyridine carbohydrazide derivatives” (BMC Chemistry, 2024) come the findings set out here.

For data set [1], the system named is HT-29 (Human colorectal adenocarcinoma) cells. The data set is described as follows: MTT reduction cytotoxicity assay, HT-29. As to conditions: ± S.E.M., max tested 100 µM. In kind it is cell-based. Here is the method:
(§1) All synthesized compounds were evaluated for cytotoxic activity against three human cancer cell lines including MCF-7, HT-29, and K562 by employing an MTT (3-(4,5-dimethylthiazol-2-yl)-2,5-diphenyltetrazolium bromide) assay. […] Cisplatin and doxorubicin were tested as standard chemotherapeutic reference agents.
(§2) MCF-7 (human breast adenocarcinoma), HT-29 (Human colorectal adenocarcinoma), K562 (human chronic myelogenous leukemia), and Vero (kidney epithelial cells of African green monkey) cells were obtained from Iranian Biological Resource Center, Tehran, Iran. MCF-7, K562, and Vero cells were cultured in RPMI 1640 medium containing 10% heat-inactivated fetal bovine serum (FBS) and 1% penicillin/streptomycin, while HT-29 cells were grown in DMEM low glucose, containing 20% heat-inactivated FBS and 1% penicillin/streptomycin. All cells were grown in monolayer culture at 37 °C in a humidified incubator with 5% CO2.
(§3) Assessment of cell viability after exposure of cancer and non-cancer cells to synthetic compounds was performed using the MTT (3-(4,5-dimethylthiazol-2-yl)-2,5-diphenyltetrazolium bromide) reduction assay. Cells were plated in 96-well microplates at densities of 30,000 cells/mL (100 μL in each well). The plates were incubated overnight at 37 °C and then 50 μL of the growth medium was replaced with the same amount of fresh medium containing 3–4 different concentrations of synthesized analogs at the final concentrations of 10–100 µM. Test compounds were initially dissolved in DMSO and then diluted in the growth medium. The upper limit of DMSO concentration in each well was 0.5%. After 72 h of incubation, 80 μL of the solution in each well was substituted with the same quantity of the growth medium comprising of MTT solution at 0.5 mg/mL. Cells were subsequently incubated at 37 °C for 4 h and then 80 μL of the solution in each well was removed. The introduction of DMSO (200 μL) to each well caused the formazan crystals formed inside the viable cells to dissolve. The process lasted 1.5 h (1 h of incubation and 30 min of shaking). The optical absorbance of the final solution was quantified at the wavelength of 570 nm using a microplate reader. IC50 values for all derivatives were calculated using CurveExpert 1.34 software.
For orientation: Tetrazolium dyes change colour on reduction, which living cells bring about.

Data set [2] has as its system K562 (human chronic myelogenous leukemia) cells. The data set is described as follows: MTT reduction cytotoxicity assay, K562. Format: cell-based. Particulars: ± S.E.M., max tested 100 µM. Here is the method:
as §1, §2, §3

Data set [3] has as its system Vero (kidney epithelial cells of African green monkey) cells. Nature of the data set: MTT reduction cytotoxicity assay, Vero non-cancer cells. Particulars: 72 h, ± S.E.M., max tested 100 µM. Format: cell-based. As for the experimental part: as §1, §2, §3
Data set [4] deals with MCF-7 (human breast adenocarcinoma) cells. Nature of the data set: MTT reduction cytotoxicity assay, MCF-7. Format: cell-based. Particulars: ± S.E.M., max tested 100 µM. Here is the method: as §1, §2, §3

In general, melting point refers to the temperature of the solid-liquid transition. The IC50 is the concentration that gives 50% inhibition. A low value points to greater potency.

`O=C(NN=Cc1ccc(Cl)cc1)c1cn2ccccc2n1` [Compound 7c, N´-(4-chlorobenzylidene)imidazo[1,2-a]pyridine-2-carbohydrazide]: the melting point lay within 226 to 228 °C. This compound also returned an IC50 in data set [1] (Homo sapiens, HT-29, 72 h) of 85.4 ± 10.3 µM. The same compound showed an IC50 in data set [2] (Homo sapiens, K562, 72 h) of more than 100 µM. For the same compound, half-maximal inhibition in data set [3] (Chlorocebus sabaeus, Vero) (IC50) required 65.6 ± 4.5 µM. Also, the IC50 in data set [4] (Homo sapiens, MCF7, 72 h) worked out at 64.8 ± 11.8 µM.
Regarding `O=C(NN=Cc1ccccc1)c1cn2ccccc2n1` [Compound 7a, N´-benzylidene imidazo[1,2-a]pyridine-2-carbohydrazide], the melting point lay in the range of 257 to 259 °C. Moreover, in data set [1] (Homo sapiens, HT-29, 72 h), the IC50 was more than 100 µM. Moreover, in data set [2] (Homo sapiens, K562, 72 h), the IC50 was more than 100 µM. The IC50 in data set [4] (Homo sapiens, MCF7, 72 h) was more than 100 µM.
Take `NNC(=O)c1cn2ccccc2n1` [Compound 5, imidazo[1,2-a]pyridine-2-carbohydrazide]: the IC50 in data set [1] (Homo sapiens, HT-29, 72 h) was more than 100 µM; in data set [2] (Homo sapiens, K562, 72 h), more than 100 µM; in data set [4] (Homo sapiens, MCF7, 72 h), more than 100 µM.
With `O=C(NNCc1cn(Cc2ccccc2)nn1)c1cn2ccccc2n1` [Compound 11a, N´-((1-benzyl-1H-1,2,3-triazol-4-yl)methyl)imidazo[1,2-a]pyridine-2-carbohydrazide], the IC50 in data set [1] (Homo sapiens, HT-29, 72 h) was 61.2 ± 6.3 µM; in data set [2] (Homo sapiens, K562, 72 h), more than 100 µM; in data set [3] (Chlorocebus sabaeus, Vero), more than 100 µM; in data set [4] (Homo sapiens, MCF7, 72 h), 40.3 ± 2.9 µM. Besides, the “IC50 Vero” value in data set [3] is “completely inactive”.
Take `Cc1ccc(C=NNC(=O)c2cn3ccccc3n2)cc1` [Compound 7e, N´-(4-methylbenzylidene)imidazo[1,2-a]pyridine-2-carbohydrazide]: the melting point lay in the range of 180 to 182 °C. This compound also had an IC50 in data set [1] (Homo sapiens, HT-29, 72 h) of more than 100 µM. Besides, in data set [2] (Homo sapiens, K562, 72 h), the IC50 is more than 100 µM. The compound further had an IC50 in data set [4] (Homo sapiens, MCF7, 72 h) of more than 100 µM.
`C#CCNNC(=O)c1cn2ccccc2n1` [Compound 9, N´-(Prop-2-yn-1-yl) imidazo[1,2-a]pyridine-2-carbohydrazide] came in with a melting point of 142 to 144 °C. The IC50 in data set [1] (Homo sapiens, HT-29, 72 h) amounted to 21.4 ± 1.9 µM. Moreover, in data set [2] (Homo sapiens, K562, 72 h), 23.7 ± 2.3 µM corresponded to half-maximal inhibition (IC50). Further, the IC50 in data set [3] (Chlorocebus sabaeus, Vero) stood at 73 ± 9.9 µM. In data set [4] (Homo sapiens, MCF7, 72 h), this compound had an IC50 of 70.1 ± 5.3 µM.
The compound `O=C(NNCc1cn(Cc2ccc(F)cc2)nn1)c1cn2ccccc2n1` [Compound 11b, N´-((1-(4-fluorobenzyl)-1H-1,2,3-triazol-4-yl)methyl)imidazo[1,2-a]pyridine-carbohydrazide] showed a melting point of 205 to 207 °C. The same compound returned an IC50 in data set [1] (Homo sapiens, HT-29, 72 h) of more than 100 µM. Moreover, the IC50 in data set [2] (Homo sapiens, K562, 72 h) is more than 100 µM. In data set [4] (Homo sapiens, MCF7, 72 h), this compound returned an IC50 of more than 100 µM.
In turn, `O=C(NNCc1cn(Cc2ccc(Br)cc2)nn1)c1cn2ccccc2n1` [Compound 11d, N´-((1-(4-bromobenzyl)-1H-1,2,3-triazol-4-yl)methyl)imidazo[1,2-a]pyridine-carbohydrazide] yielded a melting point of 186 to 188 °C. In addition, the IC50 in data set [1] (72 h) stood at 83.8 ± 13.1 µM. Besides, the midpoint of inhibition in data set [1] (Homo sapiens, HT-29, 72 h), the IC50, lay at 83.9 µM. In addition, the “IC50 K562” value in data set [2] (72 h) was “no activity”. Further, the IC50 in data set [2] (Homo sapiens, K562, 72 h) was more than 100 µM. Moreover, in data set [3], the “IC50 Vero” value is “completely inactive”. In data set [3] (Chlorocebus sabaeus, Vero), the 50% inhibitory concentration (IC50) is more than 100 µM. For the same compound, the “IC50 MCF-7” value in data set [4] (72 h) was “no activity”. The compound also yielded an IC50 in data set [4] (Homo sapiens, MCF7, 72 h) of more than 100 µM.
Regarding `O=C(NN=Cc1ccc(F)cc1)c1cn2ccccc2n1` [Compound 7b, N´-(4-fluorobenzylidene)imidazo[1,2-a]pyridine-2-carbohydrazide], the melting point was in the range of 234 to 236 °C. For the same compound, the IC50 in data set [1] (Homo sapiens, HT-29, 72 h) is more than 100 µM. The compound further had an IC50 in data set [2] (Homo sapiens, K562, 72 h) of more than 100 µM. Besides, the IC50 in data set [4] (Homo sapiens, MCF7, 72 h) was more than 100 µM.
`O=C(NNCc1cn(Cc2ccc(Cl)cc2)nn1)c1cn2ccccc2n1` [Compound 11c, N´-((1-(4-chlorobenzyl)-1H-1,2,3-triazol-4-yl)methyl)imidazo[1,2-a]pyridine-carbohydrazide] displayed a melting point of 193 to 195 °C. For the same compound, the IC50 in data set [1] (Homo sapiens, HT-29, 72 h) was more than 100 µM. Also, in data set [2] (Homo sapiens, K562, 72 h), the IC50 is more than 100 µM. This compound also displayed an IC50 in data set [4] (Homo sapiens, MCF7, 72 h) of more than 100 µM.
Consider `N.N.[Cl][Pt][Cl]` [Cisplatin, reference compound], for which the IC50 was 22.4 ± 5.8 µM in data set [1] (72 h), 9.4 ± 0.5 µM in data set [2] (72 h), 10.6 ± 1.3 µM in data set [3] and 25.9 ± 6.9 µM in data set [4] (72 h).
In turn, `Cc1ccc(Cn2cc(CNNC(=O)c3cn4ccccc4n3)nn2)cc1` [Compound 11e, N´-((1-(4-methylbenzyl)-1H-1,2,3-triazol-4-yl)methyl)imidazo[1,2-a]pyridine-carbohydrazide] gave a melting point of 140 to 142 °C. The compound further came in with an IC50 in data set [1] (Homo sapiens, HT-29, 72 h) of more than 100 µM. In data set [2] (Homo sapiens, K562, 72 h), this compound yielded an IC50 of more than 100 µM. The IC50 in data set [4] (Homo sapiens, MCF7, 72 h) is more than 100 µM.
Compound `COc1cccc2c1C(=O)c1c(O)c3c(c(O)c1C2=O)C[C@@](O)(C(=O)CO)C[C@@H]3O[C@H]1C[C@H](N)[C@H](O)[C@H](C)O1` [Doxorubicin, reference compound] showed an IC50 in data set [3] (Chlorocebus sabaeus, Vero) of 2.6 ± 0.3 µM.
